According to patent publication US10675267B2, “Methods for detection and eradication of myeloid leukemia stem cells” (priority 2015, dated 2020):
Entries after “also recorded” stand apart in the source; their conditions may differ.

Experiments:
[1] = tested on: AML-08 human LSC engrafted in NSGS mice; test: De novo AML PRIMAGRAFT model AML-08: FACS engraftment analysis and serial transplantation; assay type: in vivo, mouse
Method: All animal studies were performed in accordance with UCSD and NIH-equivalent ethical guidelines and were approved by the Institutional Animal Care and Use Committee (IACUC protocol # S06015). For all in vivo experiments, animals of both genders were utilized. Three AML PRIMAGRAFT™ models were established by transplanting AML LSC-enriched cell fractions (either CD34-selected or FACS-purified stem or progenitor cell fractions from primary patient samples) into immunocompromised Rag2^−/−γc^−/−[20] or NOD/SCID-IL2RG mice (Jackson Laboratory) constitutively expressing human SCF, GM-CSF and IL-3 (NSGS) (FIGS. 8A-8D). […]
Mice transplanted with 1-2×10^5 CD34^+ AML LSC-enriched fractions or no-transplant controls were screened for human hematopoietic cell engraftment (CD45^+ cells) in peripheral blood by FACS starting at 7-10 weeks post transplant. At 7-28 weeks post-transplant (7-36 weeks old), mice were euthanized, and peripheral blood and single cell suspensions of hematopoietic organs were analyzed for human cell engraftment by FACS. […]
Flow cytometric analysis was performed on single cell suspensions from each hematopoietic tissue essentially as for primary patient samples, and frequencies of total live human CD45^+ cells, and CD45^+CD34^+CD38^− Lin^− (stem) and CD45^+CD34^+CD38^+ Lin^− (progenitor) cells were determined in each tissue. […]

[2] = tested on: human CD34+ cells from treated mice (DNAJB1, MCL1, BCL2, BCLX, SF3B1 transcripts); test: qRT-PCR / RT-PCR of in vivo splicing alterations in CD34-selected human cells from treated AML PRIMAGRAFT mice
Method: For in vivo treatments, a 10 mg/mL stock solution of 17S-FD-895 solubilized in DMSO was used. After randomization, AML-engrafted mice were dosed intravenously with 17S-FD-895 (5-10 mg/kg) or vehicle (for AML-08, vehicle control=15% DMSO in PBS; for AML-37, vehicle control=20% DMSO in PBS) three times over a two-week period, with the first dose given on day 1, the second on day 7, and the third on day 14. For preparation of RNA from human LSC-enriched populations, single cell suspensions from spleen and bone marrow were CD34 double-selected (over two LS selection columns, Miltenyi) and 1-2×10^5 cells were collected in lysis buffer or pooled according to treatment group for serial transplantation assays.
For qRT-PCR analysis of relative total mRNA expression levels or splice isoform-specific expression analyses, cDNA was synthesized using 50 ng-1 […] of template RNA in 20 μL reaction volumes using the First-Strand SUPERSCRIPT™ III Reverse Transcriptase Supermix (Life Technologies) followed by incubation with RNase H according to the manufacturer's protocol and as described previously. All cDNA products were stored at −20° C. Splice isoform-specific primers for PTK2B-202 were designed to bind to unique exon junctions for this transcript, which lacks exon 24. All primers (Table 2) were diluted to 10 μM working dilutions in DNase/RNase-free water. qRT-PCR was performed in duplicate using cDNA (1 μL reverse transcription product per reaction) on an iCycler (Bio-Rad, Hercules, Calif.) using SYBR® GREENER™ Super Mix (Life Technologies) in 25-μL volume reactions containing 0.2 μM of each forward and reverse primer. Cycling conditions were as follows: 50° C. for 2 minutes, then 95° C. for 8 minutes and 30 seconds, followed by 40 cycles of 95° C. for 15 seconds and 60° C. for 60 seconds. Melting curve analysis was performed on each plate according to the manufacturer's instructions. For standard qRT-PCR, human HPRT mRNA transcript levels were used to normalize Ct values obtained for each gene, and relative expression levels were calculated using the 2^−ddCt method. To ensure validity of results, only Ct values <35 were used in gene expression analyses. All primer sets were tested in a no-template control (NTC) reaction containing only water instead of cDNA, and all gave Ct values >35 in NTC reactions.
The 17S-FD-895 dosing regimen was selected as the maximum number of doses possible for the treatment of three experimental groups with the amount of synthesized compound that was available, and is consistent with weekly IV dosing regimens used in clinical trials of spliceosome inhibitory compounds in patients with solid tumors. Animals were euthanized within two hours after delivery of the final dose of 17S-FD-895, and peripheral blood, spleens and bone marrows were collected for analysis of total human cell and stem and progenitor cell engraftment, and for RNA extraction for splice isoform-specific qRT-PCR.
For qRT-PCR analysis of relative total mRNA expression levels or splice isoform-specific expression analyses, cDNA was synthesized using 50 ng-1 […] reaction volumes using the First-Strand SUPERSCRIPT™ III Reverse Transcriptase Supermix (Life Technologies) followed by incubation with RNase H according to the manufacturer's protocol and as described previously (Abrahamsson et al., 2009; Crews et al., 2015). All cDNA products were stored at −20° C. Splice isoform-specific primers for PTK2B-202 were designed to bind to unique exon junctions for this transcript, which lacks exon 24. All primers (Supplemental Experimental Procedures Table) were diluted to 10 ∝M working dilutions in DNase/RNase-free water. qRT-PCR was performed in duplicate using cDNA (1 ∝Λ reverse transcription product per reaction) on an iCycler (Bio-Rad, Hercules, Calif.) using SYBR® GREENER™ Super Mix (Life Technologies) in 25-∝A volume reactions containing 0.2 ∝M of each forward and reverse primer. […]

[3] = CD34+ cells of individual treated mice versus vehicle
[4] = pooled CD34+ cells used for serial transplantation

## CC[C@H](OC)[C@@H](C)[C@H]1O[C@@H]1[C@@H](O)[C@H](C)/C=C/C=C(\C)[C@H]1OC(=O)C[C@H](O)CC[C@@](C)(O)[C@@H](OC(C)=O)/C=C/[C@@H]1C (stereo in doubt) [Formula 17S-FD-895, 17S-FD-895]
[1]; de novo AML model, lower dose
  circulating leukemic cells in secondary recipients: trend towards decreased circulating leukemic cells
[1]; model with high disease burden, serial transplantation, p=0.07
  decrease in circulating leukemic burden in secondary recipients: 49%
[2]; CD34+ cells of individual treated mice versus control
  BCL2L1-L/S expression ratio: significant reduction
[2]; [3]
  BCL2-L/S expression ratio: significant reduction
  MCL1-L/S expression ratio: significant reduction
[2]; after treatment, individual mice and pooled samples
  SF3B1 mRNA expression: unchanged
[2]; human CD34+ cells from treated mice versus vehicle
  DNAJB1 intron 2 expression / retention: increased DNAJB1 intron 2 expression; also recorded: increased DNAJB1 intron 2 retention
[2]; [4]
  MCL1-L/S expression ratios, pooled cells: dramatically reduced; also recorded: significantly reduced
  MCL1 exon 1-3 splicing pattern (RT-PCR): MCL1 exon skipping and intron inclusion
